Results: KR20200058863A, “루테인 장용성 고체분산체를 유효성분으로 함유하는 위산보호용 조성물 및 이를 포함하는 경구용 제제” (중앙대학교 산학협력단, priority 2018, dated 2020)
Like-named read-outs stand apart in the source and are kept apart here.

Key:
[1] = PXRD crystallinity of lutein and solid dispersions; format: physicochemical; settings: 2θ 5° to 50°, room temperature
physchem [2] = settings: artificial gastric fluid, pH 1.2
[3] = intestinal condition pH 6.8, 37 ± 0.5 ℃, 100 rpm
physchem [4] = settings: artificial gastric fluid, pH 1.2; remark: listed apart in the source
physchem [5] = settings: ph 1.2 solution
[6] = In vitro dissolution in artificial gastric/intestinal fluid and successive pH (USP 29 apparatus 2); format: physicochemical; settings: artificial gastric fluid pH 1.2, 120 min
[7] = intestinal fluid, pH 6.8; spectra over 24 h

Which results are given for `CC1=C[C@H](O)CC(C)(C)[C@H]1/C=C/C(C)=C/C=C/C(C)=C/C=C/C=C(C)/C=C/C=C(C)/C=C/C1=C(C)C[C@@H](O)CC1(C)C` [루테인]?
crystallinity (PXRD peaks) [1]: 다양한 특유의 피크를 갖는 고도의 결정구조; degraded at 24 h (physchem [2]): ~50%; lutein content (pH 1.2, 0 h): 10.31 ± 0.29 mg; lutein ratio (pH 1.2, 0 h): 100%; lutein content (pH 1.2, after 12 h): 1.51 ± 0.03 mg; change of lutein [3]: 루테인 변화가 나타나지 않았다; degraded at 2 h (physchem [4]): 70%; remaining at 12 h (physchem [5]): 14.7%; acid resistance ([6]; 37 ± 0.5 ℃, 100 rpm): 산저항성을 나타내었으며; lutein detected in dissolution medium ([6]; low solubility): 검출되지 않았다; change of lutein absorbance spectrum [7]: 유의한 변화가 확인되지 않았다
